Values after ≈ are worked out from the molar mass of the structure shown.

One may read the MIC as the lowest concentration that inhibits growth of the organism.

The first test deals with Klebsiella pneumoniae. The test can be described thus: Antimicrobial activity against Klebsiella pneumoniae AH24-270 expressing blaCTX-M-71 gene by agar dilution method. The format is functional.
Conditions: not given
For orientation: Agar dilution tests growth on a series of plates holding different concentrations.
The compound `CC1(C)S[C@@H]2[C@H](NC(=O)[C@H](N)c3ccc(O)cc3)C(=O)N2[C@H]1C(=O)O` [AMOXICILLIN] gave an MIC above 512 µg/mL.
`C[C@@H](O)[C@H]1C(=O)N2C(C(=O)O)=C([C@H]3CCCO3)S[C@H]12` [FAROPENEM] came in with an MIC of 4 µg/mL (≈ 14 µM).
The compound `C[C@@H](O)[C@H]1C(=O)N2C(C(=O)O)=C(S[C@@H]3CN[C@H](C(=O)N(C)C)C3)[C@H](C)[C@H]12` [MEROPENEM] gave an MIC of 4 µg/mL (≈ 10.4 µM).

A further test deals with Escherichia coli. Description: Antimicrobial activity against Escherichia coli K-12 transconjugant harboring blaCTX-M-71 gene by agar dilution method. The format is functional.
Conditions: not given
Take `CC1(C)S[C@@H]2[C@H](NC(=O)[C@H](N)c3ccc(O)cc3)C(=O)N2[C@H]1C(=O)O` [AMOXICILLIN]: the MIC was above 512 µg/mL.
Still for that read-out and setting: with `C[C@@H](O)[C@H]1C(=O)N2C(C(=O)O)=C([C@H]3CCCO3)S[C@H]12` [FAROPENEM] the figure was 1 µg/mL (≈ 3.5 µM); with `C[C@@H](O)[C@H]1C(=O)N2C(C(=O)O)=C(S[C@@H]3CN[C@H](C(=O)N(C)C)C3)[C@H](C)[C@H]12` [MEROPENEM], 0.03 µg/mL (≈ 0.0782 µM).

Another test concerns Escherichia coli. Description: Antimicrobial activity against Escherichia coli K-12 by agar dilution method.
Conditions: not given
The test is classed as functional.
With `CC1(C)S[C@@H]2[C@H](NC(=O)[C@H](N)c3ccc(O)cc3)C(=O)N2[C@H]1C(=O)O` [AMOXICILLIN], inhibition of growth (MIC) required 2 µg/mL (≈ 5.47 µM).
The same measure, in the same setting: with `C[C@@H](O)[C@H]1C(=O)N2C(C(=O)O)=C([C@H]3CCCO3)S[C@H]12` [FAROPENEM] the figure was 0.5 µg/mL (≈ 1.75 µM).
Same read-out and setting: with `C[C@@H](O)[C@H]1C(=O)N2C(C(=O)O)=C(S[C@@H]3CN[C@H](C(=O)N(C)C)C3)[C@H](C)[C@H]12` [MEROPENEM] the figure was 0.03 µg/mL (≈ 0.0782 µM).

The next test concerns Escherichia coli. Description: Antimicrobial activity against Escherichia coli DH5[alpha] harboring pBC-CTX-M-71 plasmid by agar dilution method. The test is classed as functional.
Conditions: not given
`CC1(C)S[C@@H]2[C@H](NC(=O)[C@H](N)c3ccc(O)cc3)C(=O)N2[C@H]1C(=O)O` [AMOXICILLIN] gave an MIC above 512 µg/mL.
Still for that read-out and setting: the value for `C[C@@H](O)[C@H]1C(=O)N2C(C(=O)O)=C([C@H]3CCCO3)S[C@H]12` [FAROPENEM] was 0.5 µg/mL (≈ 1.75 µM).
In turn, `C[C@@H](O)[C@H]1C(=O)N2C(C(=O)O)=C(S[C@@H]3CN[C@H](C(=O)N(C)C)C3)[C@H](C)[C@H]12` [MEROPENEM] returned an MIC of 0.03 µg/mL (≈ 0.0782 µM).

For a further test, the system named is Escherichia coli. Description: Antimicrobial activity against Escherichia coli DH5[alpha] harboring pBC-CTX-M-15 plasmid by agar dilution method. The test is classed as functional.
Conditions: not given
In turn, `CC1(C)S[C@@H]2[C@H](NC(=O)[C@H](N)c3ccc(O)cc3)C(=O)N2[C@H]1C(=O)O` [AMOXICILLIN] yielded an MIC above 512 µg/mL.
The compound `C[C@@H](O)[C@H]1C(=O)N2C(C(=O)O)=C([C@H]3CCCO3)S[C@H]12` [FAROPENEM] displayed an MIC of 1 µg/mL (≈ 3.5 µM).
The compound `C[C@@H](O)[C@H]1C(=O)N2C(C(=O)O)=C(S[C@@H]3CN[C@H](C(=O)N(C)C)C3)[C@H](C)[C@H]12` [MEROPENEM] returned an MIC of 0.03 µg/mL (≈ 0.0782 µM).

For another test, the system named is Escherichia coli. The test can be described thus: Antimicrobial activity against Escherichia coli DH5[alpha] by agar dilution method. The test is classed as functional.
Conditions: not given
`CC1(C)S[C@@H]2[C@H](NC(=O)[C@H](N)c3ccc(O)cc3)C(=O)N2[C@H]1C(=O)O` [AMOXICILLIN] gave an MIC of 4 µg/mL (≈ 10.9 µM).
With `C[C@@H](O)[C@H]1C(=O)N2C(C(=O)O)=C([C@H]3CCCO3)S[C@H]12` [FAROPENEM], the MIC was found to be 0.5 µg/mL (≈ 1.75 µM).
Consider `C[C@@H](O)[C@H]1C(=O)N2C(C(=O)O)=C(S[C@@H]3CN[C@H](C(=O)N(C)C)C3)[C@H](C)[C@H]12` [MEROPENEM], for which inhibition of growth (MIC) required 0.03 µg/mL (≈ 0.0782 µM).

Another test deals with Klebsiella pneumoniae. The test can be described thus: Antimicrobial activity against Klebsiella pneumoniae AH24-270 expressing blaCTX-M-71 gene by agar dilution method in presence of beta-lactamase inhibitor clavulanic acid. The format is functional.
Conditions: not given
`CC1(C)S[C@@H]2[C@H](NC(=O)[C@H](N)c3ccc(O)cc3)C(=O)N2[C@H]1C(=O)O` [AMOXICILLIN]: the MIC was above 512 µg/mL.
Same read-out and setting: with `C[C@@H](O)[C@H]1C(=O)N2C(C(=O)O)=C([C@H]3CCCO3)S[C@H]12` [FAROPENEM] the figure was 4 µg/mL.
With `C[C@@H](O)[C@H]1C(=O)N2C(C(=O)O)=C(S[C@@H]3CN[C@H](C(=O)N(C)C)C3)[C@H](C)[C@H]12` [MEROPENEM], the MIC is 0.5 µg/mL.

The next test has as its system Escherichia coli. Description: Antimicrobial activity against Escherichia coli K-12 transconjugant harboring blaCTX-M-71 gene by agar dilution method in presence of beta-lactamase inhibitor clavulanic acid. The test is classed as functional.
Conditions: not given
`CC1(C)S[C@@H]2[C@H](NC(=O)[C@H](N)c3ccc(O)cc3)C(=O)N2[C@H]1C(=O)O` [AMOXICILLIN]: the MIC came out at 64 µg/mL.
As to `C[C@@H](O)[C@H]1C(=O)N2C(C(=O)O)=C([C@H]3CCCO3)S[C@H]12` [FAROPENEM], the minimal inhibitory concentration (MIC) was determined as 0.5 µg/mL.
On to `C[C@@H](O)[C@H]1C(=O)N2C(C(=O)O)=C(S[C@@H]3CN[C@H](C(=O)N(C)C)C3)[C@H](C)[C@H]12` [MEROPENEM], for which the MIC was determined as 0.016 µg/mL.

A further test deals with Escherichia coli. Description: Antimicrobial activity against Escherichia coli K-12 by agar dilution method in presence of beta-lactamase inhibitor clavulanic acid. The test is classed as functional.
Conditions: not given
For the compound `CC1(C)S[C@@H]2[C@H](NC(=O)[C@H](N)c3ccc(O)cc3)C(=O)N2[C@H]1C(=O)O` [AMOXICILLIN], the MIC was found to be 2 µg/mL.
For the compound `C[C@@H](O)[C@H]1C(=O)N2C(C(=O)O)=C([C@H]3CCCO3)S[C@H]12` [FAROPENEM], the MIC came out at 0.5 µg/mL.
Turning to `C[C@@H](O)[C@H]1C(=O)N2C(C(=O)O)=C(S[C@@H]3CN[C@H](C(=O)N(C)C)C3)[C@H](C)[C@H]12` [MEROPENEM], the MIC was determined as 0.016 µg/mL.

The next test relates to Escherichia coli. Description: Antimicrobial activity against Escherichia coli DH5alpha harboring pBC-CTX-M-71 plasmid by agar dilution method in presence of beta-lactamase inhibitor clavulanic acid. The format is functional. To be noted: DH5[alpha].
Turning to `CC1(C)S[C@@H]2[C@H](NC(=O)[C@H](N)c3ccc(O)cc3)C(=O)N2[C@H]1C(=O)O` [AMOXICILLIN], the MIC turned out to be 8 µg/mL.
For `C[C@@H](O)[C@H]1C(=O)N2C(C(=O)O)=C([C@H]3CCCO3)S[C@H]12` [FAROPENEM], the MIC came to 0.5 µg/mL.
As to `C[C@@H](O)[C@H]1C(=O)N2C(C(=O)O)=C(S[C@@H]3CN[C@H](C(=O)N(C)C)C3)[C@H](C)[C@H]12` [MEROPENEM], the MIC came out at 0.03 µg/mL.

A further test concerns Escherichia coli. Description: Antimicrobial activity against Escherichia coli DH5alpha harboring pBC-CTX-M-15 plasmid by agar dilution method in presence of beta-lactamase inhibitor clavulanic acid. The test is classed as functional. To be noted: DH5[alpha].
Regarding `CC1(C)S[C@@H]2[C@H](NC(=O)[C@H](N)c3ccc(O)cc3)C(=O)N2[C@H]1C(=O)O` [AMOXICILLIN], the MIC was 8 µg/mL.
Still for that read-out and setting: with `C[C@@H](O)[C@H]1C(=O)N2C(C(=O)O)=C([C@H]3CCCO3)S[C@H]12` [FAROPENEM] the figure was 0.5 µg/mL.
For `C[C@@H](O)[C@H]1C(=O)N2C(C(=O)O)=C(S[C@@H]3CN[C@H](C(=O)N(C)C)C3)[C@H](C)[C@H]12` [MEROPENEM], the MIC was 0.03 µg/mL.

In the next test the test system is Escherichia coli. Description: Antimicrobial activity against Escherichia coli DH5alpha by agar dilution method in presence of beta-lactamase inhibitor clavulanic acid. The test is classed as functional. To be noted: DH5[alpha].
For `CC1(C)S[C@@H]2[C@H](NC(=O)[C@H](N)c3ccc(O)cc3)C(=O)N2[C@H]1C(=O)O` [AMOXICILLIN], the MIC stood at 2 µg/mL.
Regarding `C[C@@H](O)[C@H]1C(=O)N2C(C(=O)O)=C([C@H]3CCCO3)S[C@H]12` [FAROPENEM], the MIC was 0.25 µg/mL.
Regarding `C[C@@H](O)[C@H]1C(=O)N2C(C(=O)O)=C(S[C@@H]3CN[C@H](C(=O)N(C)C)C3)[C@H](C)[C@H]12` [MEROPENEM], the MIC came to 0.03 µg/mL.

The values above are taken from ChEMBL document CHEMBL1649220, “New variant of CTX-M-type extended-spectrum beta-lactamases, CTX-M-71, with a Gly238Cys substitution in a Klebsiella pneumoniae isolate from Bulgaria” (2009).
